Here are results for 19 compounds from PubChem BioAssay AID248 (DTP/NCI, 2004).

This assay deals with L1210 leukemia ip in BDF1 mice, survival T/C. The experiment in a line: NCI In Vivo Anticancer Drug Screen. Data for tumor model L1210 Leukemia (intraperitoneal) in B6D2F1 (BDF1) mice. The conditions noted are these: endpoint: mean survival time, higher = longer survival. The method in brief:
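Each compound was tested against a transplantable tumor grown in mice. The endpoint was survival, with treated animals benchmarked against vehicle controls as a simple ratio.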

Setting [1] is: dose: 100.0 mg/kg/injection, schedule: Q04DX003 (ip), vehicle: Klucel (hydroxypropylcellulose) (HPC).
The mark [2] stands for this setting: dose: 200.0 mg/kg/injection, schedule: Q04DX003 (ip), vehicle: Klucel (hydroxypropylcellulose) (HPC).
Setting [3] is: dose: 400.0 mg/kg/injection, schedule: Q04DX003 (ip), vehicle: Klucel (hydroxypropylcellulose) (HPC).
Setting [4] is: dose: 100.0 mg/kg/injection, schedule: Q01DX001 (ip), vehicle: carboxymethylcellulose (CMC).
[5] abbreviates: dose: 400.0 mg/kg/injection, schedule: Q01DX001 (ip), vehicle: carboxymethylcellulose (CMC).
The mark [6] stands for this setting: dose: 100.0 mg/kg/injection, schedule: Q04DX002 (ip), vehicle: Klucel (hydroxypropylcellulose) (HPC).
Setting [7] is: dose: 200.0 mg/kg/injection, schedule: Q04DX002 (ip), vehicle: Klucel (hydroxypropylcellulose) (HPC).
The mark [8] stands for this setting: dose: 100.0 mg/kg/injection, schedule: Q01DX009 (ip), vehicle: saline.
Where [9] appears, read: dose: 50.0 mg/kg/injection, schedule: Q01DX001 (ip), vehicle: saline.
Setting [10] is: dose: 100.0 mg/kg/injection, schedule: Q01DX001 (ip), vehicle: saline.
Where [11] appears, read: dose: 200.0 mg/kg/injection, schedule: Q01DX001 (ip), vehicle: saline.
Where [12] appears, read: dose: 100.0 mg/kg/injection, schedule: Q01DX009 (ip), vehicle: saline with Tween-80.

Values joined by “and” are separate entries in the source; they are usually repeats but may differ in a detail not shown here. Identical values can stand only once. Toxic doses and inconclusive results are not listed.

Take `Cc1oc2ccc(O)c(N=Nc3cccc([N+](=O)[O-])c3)c2c1C`: the T/C is, setting by setting: under setting [1], 97 % of control; under setting [2], 101 % of control; under setting [3], 109 % of control.

Regarding `COc1cc2c(cc1OC)C1C(C)c3ccc(OC)c(OC)c3CN1CC2` (centres undefined), the T/C by setting is: under setting [4], 100 % of control; (dose: 200.0 mg/kg/injection, schedule: Q01DX001 (ip), vehicle: carboxymethylcellulose (CMC)) 100 % of control; under setting [5], 96 % of control.

With `Cc1c(NC(=O)Nc2cc(C(F)(F)F)ccc2Cl)c(=O)n(-c2ccccc2)n1C`, the T/C under setting [6] is 96 % of control; the T/C under setting [7] was 96 % of control; the T/C (dose: 400.0 mg/kg/injection, schedule: Q04DX002 (ip), vehicle: Klucel (hydroxypropylcellulose) (HPC)) is 105 % of control.

With `NC(=O)N/C=N/N=C(N)N`, the T/C is 101 % of control (dose: 15.0 mg/kg/injection, schedule: Q01DX Z (ip), vehicle: methylcellulose (MC)); 107 % of control (dose: 30.0 mg/kg/injection, schedule: Q01DX Z (ip), vehicle: methylcellulose (MC)); 108 % of control (dose: 60.0 mg/kg/injection, schedule: Q01DX Z (ip), vehicle: methylcellulose (MC)); 108 % of control (dose: 120.0 mg/kg/injection, schedule: Q01DX Z (ip), vehicle: methylcellulose (MC)); 94 % of control (dose: 240.0 mg/kg/injection, schedule: Q01DX Z (ip), vehicle: methylcellulose (MC)); 94 % of control (dose: 420.0 mg/kg/injection, schedule: Q01DX Z (ip), vehicle: methylcellulose (MC)). The T/C (dose: 600.0 mg/kg/injection, schedule: Q01DX Z (ip), vehicle: methylcellulose (MC)) is 86 % of control.

In the case of `COC1OC2COC(C2OS(=O)(=O)c2ccc(C)cc2)C1OS(=O)(=O)c1ccc(C)cc1` (centres undefined), the T/C was 94 % of control (dose: 50.0 mg/kg/injection, schedule: Q04DX002 (ip), vehicle: Klucel (hydroxypropylcellulose) (HPC)); 94 % of control under setting [6]; 98 % of control under setting [7].

`COc1ccc(OC)c(NC(=O)NC(C)(C)C)c1`: the T/C (dose: 100.0 mg/kg/injection, schedule: Q01DX009 (ip), vehicle: Klucel (hydroxypropylcellulose) (HPC)) is 101 % of control; the T/C (dose: 200.0 mg/kg/injection, schedule: Q01DX009 (ip), vehicle: Klucel (hydroxypropylcellulose) (HPC)) was 103 % of control; the T/C (dose: 400.0 mg/kg/injection, schedule: Q01DX009 (ip), vehicle: Klucel (hydroxypropylcellulose) (HPC)) was 88 % of control.

`CCc1cc(CC)c(S(=O)(=O)O)c(CC)c1CC`: the T/C under setting [8] was 90 % of control.

`COc1ccc(N=C(N)N=C(N)N)cc1`: the T/C was 111 % of control under setting [9]; 104 % of control under setting [10]; 91 % of control under setting [8]; 95 % of control under setting [11]; 92 % of control (dose: 200.0 mg/kg/injection, schedule: Q01DX009 (ip), vehicle: saline).

On to `O=C(O)C1Cc2nc[nH]c2CN1CO` (centres undefined), for which the T/C is 122 % of control (dose: 12.5 mg/kg/injection, schedule: Q01DX009 (ip), vehicle: saline with Tween-80); 113 % of control (dose: 25.0 mg/kg/injection, schedule: Q01DX009 (ip), vehicle: saline with Tween-80); 263 % of control under setting [12].

On to `[Si]c1cccc2ccccc12`, for which the T/C runs as follows: (dose: 25.6 mg/kg/injection, schedule: Q04DX002 (ip), vehicle: saline with Tween-80) 97 % of control; (dose: 64.0 mg/kg/injection, schedule: Q04DX002 (ip), vehicle: saline with Tween-80) 97 % of control; (dose: 160.0 mg/kg/injection, schedule: Q04DX002 (ip), vehicle: saline with Tween-80) 97 % of control; (dose: 400.0 mg/kg/injection, schedule: Q04DX002 (ip), vehicle: saline with Tween-80) 101 % of control.

In the case of `COC(=O)c1[nH]cnc1/N=N/N(C)C.[Cl][Cu][Cl]`, the T/C was 106 % of control and 115 % of control (dose: 9.0 mg/kg/injection, schedule: Q01DX009 (ip), vehicle: saline); 107 % of control and 108 % of control (dose: 13.0 mg/kg/injection, schedule: Q01DX009 (ip), vehicle: saline); 122 % of control (dose: 20.0 mg/kg/injection, schedule: Q01DX009 (ip), vehicle: saline).

For `CS(=O)(=O)SCc1ccc([N+](=O)[O-])cc1`, the T/C is 114 % of control (dose: 15.0 mg/kg/injection, schedule: Q01DX001 (ip), vehicle: carboxymethylcellulose (CMC)); 101 % of control (dose: 30.0 mg/kg/injection, schedule: Q01DX001 (ip), vehicle: carboxymethylcellulose (CMC)); 97 % of control (dose: 60.0 mg/kg/injection, schedule: Q01DX001 (ip), vehicle: carboxymethylcellulose (CMC)).

Turning to `NCCCCc1nc(N)nc(N)c1-c1ccc(Cl)cc1`, the T/C was 104 % of control (dose: 25.0 mg/kg/injection, schedule: Q01DX001 (ip), vehicle: saline); 96 % of control under setting [9]; 102 % of control under setting [10].

As to `CC(C)(C)N=Cc1ccccc1O.CC(C)(C)N=Cc1ccccc1O.[Cu]`, the T/C by setting is: (dose: 6.25 mg/kg/injection, schedule: Q04DX003 (ip), vehicle: saline with Tween-80) 94 % of control; (dose: 12.5 mg/kg/injection, schedule: Q04DX003 (ip), vehicle: saline with Tween-80) 104 % of control; (dose: 25.0 mg/kg/injection, schedule: Q04DX003 (ip), vehicle: saline with Tween-80) 96 % of control.

On to `OCc1cc2ccccc2cc1F`, for which the T/C reads like this: (dose: 50.0 mg/kg/injection, schedule: Q01DX009 (ip), vehicle: saline with Tween-80) 105 % of control; under setting [12], 92 % of control; (dose: 100.0 mg/kg/injection, schedule: Q04DX003 (ip), vehicle: acetone) 100 % of control; (dose: 200.0 mg/kg/injection, schedule: Q01DX009 (ip), vehicle: saline with Tween-80) 103 % of control; (dose: 200.0 mg/kg/injection, schedule: Q04DX003 (ip), vehicle: acetone) 87 % of control.

On to `COC(=O)C1=CCC(C2(C)CO2)CC1` (centres undefined), for which the T/C under setting [1] was 104 % of control, the T/C under setting [2] was 109 % of control and the T/C under setting [3] was 104 % of control.

For `C[N+](C)(C)CCCBr`, the T/C by setting is: (dose: 10.0 mg/kg/injection, schedule: Q01DX001 (ip), vehicle: saline) 112 % of control; (dose: 20.0 mg/kg/injection, schedule: Q01DX001 (ip), vehicle: saline) 89 % of control.

`N=C(N)c1ccncc1`: the T/C (dose: 100.0 mg/kg/injection, schedule: Q04DX003 (ip), vehicle: saline) is 104 % of control; the T/C (dose: 200.0 mg/kg/injection, schedule: Q04DX003 (ip), vehicle: saline) was 104 % of control; the T/C (dose: 400.0 mg/kg/injection, schedule: Q04DX003 (ip), vehicle: saline) is 107 % of control.

Take `S=c1nc[nH]c2c1ncn2CN1CCOCC1`: the T/C reads like this: (dose: 30.0 mg/kg/injection, schedule: Q01DX015 (ip), vehicle: saline) 119 % of control; (dose: 42.0 mg/kg/injection, schedule: Q01DX009 (ip), vehicle: carboxymethylcellulose (CMC)) 118 % of control; (dose: 80.0 mg/kg/injection, schedule: Q01DX015 (ip), vehicle: saline) 153 % of control; under setting [4], 112 % of control; under setting [10], 110 % of control; (dose: 120.0 mg/kg/injection, schedule: Q01DX009 (ip), vehicle: carboxymethylcellulose (CMC)) 168 % of control. The T/C was 152 % of control (dose: 135.0 mg/kg/injection, schedule: Q01DX015 (ip), vehicle: saline); 152 % of control (dose: 177.0 mg/kg/injection, schedule: Q01DX001 (ip), vehicle: saline); 122 % of control under setting [11]; 91 % of control (dose: 200.0 mg/kg/injection, schedule: Q01DX009 (ip), vehicle: carboxymethylcellulose (CMC)); 163 % of control (dose: 266.0 mg/kg/injection, schedule: Q01DX001 (ip), vehicle: saline); 164 % of control and 166 % of control under setting [5]. Further, the T/C is 152 % of control (dose: 400.0 mg/kg/injection, schedule: Q01DX001 (ip), vehicle: saline) and 152 % of control (dose: 600.0 mg/kg/injection, schedule: Q01DX001 (ip), vehicle: saline).
